From PubChem BioAssay AID200 (DTP/NCI, 2004)
Where “and” joins values, the source holds several entries; their conditions need not be identical. Equal values may be shown once. Toxic doses and inconclusive results are not listed. Where a SMILES comes first, the peptide text is derived from it. Bridges are numbered along the chain shown (N, C = ends). [ ]: non-standard residue; d: D form. The star is where a group is joined. Cbz = O=C(OCc1ccccc1)*; Nva = CCC[CH](N)C(=O)O

System: B6C3F1 mice, B16 melanoma ip, median survival T/C
Assay: NCI In Vivo Anticancer Drug Screen. Data for tumor model B16 Melanoma (intraperitoneal) in B6C3F1 mice
Settings: endpoint: median survival time, higher = longer survival
How it was run: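 Readout: survival or tumor size in treated mice relative to vehicle controls (T/C). Model uses transplantable tumors grown in mice.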

[1] = dose: 12.5 mg/kg/injection, schedule: Q01DX009 (ip), vehicle: saline
[2] = dose: 25.0 mg/kg/injection, schedule: Q01DX009 (ip), vehicle: saline
[3] = dose: 50.0 mg/kg/injection, schedule: Q01DX009 (ip), vehicle: saline
[4] = dose: 200.0 mg/kg/injection, schedule: Q01DX009 (ip), vehicle: saline
[5] = dose: 100.0 mg/kg/injection, schedule: Q01DX009 (ip), vehicle: saline
[6] = dose: 100.0 mg/kg/injection, schedule: Q01DX009 (ip), vehicle: Klucel (hydroxypropylcellulose) (HPC)
[7] = dose: 200.0 mg/kg/injection, schedule: Q01DX009 (ip), vehicle: Klucel (hydroxypropylcellulose) (HPC)
[8] = dose: 400.0 mg/kg/injection, schedule: Q01DX009 (ip), vehicle: Klucel (hydroxypropylcellulose) (HPC)

Structure (SMILES): Nc1ncn(C2OC(CO)C(O)C2O)c(=O)n1 (stereo not drawn)
- T/C (dose: 0.37 mg/kg/injection, schedule: Q01DX009 (ip), vehicle: saline): 106 % of control
- T/C (dose: 0.75 mg/kg/injection, schedule: Q01DX009 (ip), vehicle: saline): 111 % of control
- T/C (dose: 1.5 mg/kg/injection, schedule: Q01DX009 (ip), vehicle: saline): 112 % of control
- T/C (dose: 6.0 mg/kg/injection, schedule: Q01DX009 (ip), vehicle: saline): 114 % of control
- T/C (dose: 6.25 mg/kg/injection, schedule: Q01DX009 (ip), vehicle: saline): 105 % of control
- T/C (dose: 12.0 mg/kg/injection, schedule: Q01DX009 (ip), vehicle: saline): 112 % of control
- T/C [1]: 112 % of control
- T/C [2]: 117 % of control and 119 % of control
- T/C [3]: 116 % of control and 117 % of control (2×)
- T/C [4]: 153 % of control

Structure (SMILES): C=C1C(O)C2(O)OCC34C(CC5C(C)=CC(=O)C(O)C5(C)C23)OC(=O)C(OC(=O)C/C=C/CCCCCCCC)C14 (stereo not drawn)
- T/C (dose: 4.0 mg/kg/injection, schedule: Q01DX009 (ip), vehicle: saline + alcohol): 182 % of control
- T/C (dose: 5.76 mg/kg/injection, schedule: Q01DX009 (ip), vehicle: saline + Tween-80 + alcohol): 160 % of control
- T/C (dose: 8.0 mg/kg/injection, schedule: Q01DX009 (ip), vehicle: saline + alcohol): 182 % of control
- T/C (dose: 9.6 mg/kg/injection, schedule: Q01DX009 (ip), vehicle: saline + Tween-80 + alcohol): 197 % of control
- T/C (dose: 16.0 mg/kg/injection, schedule: Q01DX009 (ip), vehicle: saline + Tween-80 + alcohol): 176 % of control
- T/C (dose: 16.0 mg/kg/injection, schedule: Q01DX009 (ip), vehicle: saline + alcohol): 192 % of control

Structure (SMILES): C[n+]1c(/C=N/NC(N)=S)ccc2ccccc21
- T/C (dose: 6.25 mg/kg/injection, schedule: Q01DX009 (ip), vehicle: saline with Tween-80): 92 % of control
- T/C (dose: 12.5 mg/kg/injection, schedule: Q01DX009 (ip), vehicle: saline with Tween-80): 87 % of control
- T/C (dose: 25.0 mg/kg/injection, schedule: Q01DX009 (ip), vehicle: saline with Tween-80): 92 % of control
- T/C (dose: 50.0 mg/kg/injection, schedule: Q01DX009 (ip), vehicle: saline with Tween-80): 94 % of control
- T/C (dose: 100.0 mg/kg/injection, schedule: Q01DX009 (ip), vehicle: saline with Tween-80): 92 % of control

Structure (SMILES): CC[C@](O)(C(=O)O)c1cc2n(c(=O)c1CO)Cc1cc3ccccc3nc1-2
- T/C (dose: 0.75 mg/kg/injection, schedule: Q01DX009 (ip), vehicle: water): 117 % of control
- T/C (dose: 1.5 mg/kg/injection, schedule: Q01DX009 (ip), vehicle: water): 154 % of control
- T/C (dose: 3.0 mg/kg/injection, schedule: Q01DX009 (ip), vehicle: water): 169 % of control

Structure (SMILES): COC(=O)[C@@]12OC[C@]34[C@H]([C@@H](O)[C@@H]1O)[C@@]1(C)CC(=O)C(O)=C(C)[C@@H]1C[C@H]3OC(=O)[C@H](OC(=O)/C=C(\C)C1(C)CO1)[C@@H]24 (stereo partly drawn)
- T/C (dose: 0.01 mg/kg/injection, schedule: Q01DX009 (ip), vehicle: saline + alcohol): 108 % of control
- T/C (dose: 0.03 mg/kg/injection, schedule: Q01DX009 (ip), vehicle: saline + alcohol): 116 % of control

Structure (SMILES): CCC(C)C1NC(=O)C(CC(C)C)NC(=O)C(C(C)C)NC(=O)C2CSSCC(NC1=O)C(=O)N2 (stereo not drawn) (cyclo(CCVLI); disulfide 1-2; configuration not given here)
- T/C (dose: 31.25 micrograms/kg/injection, schedule: Q01DX009 (ip), vehicle: Klucel (hydroxypropylcellulose) (HPC)): 105 % of control
- T/C (dose: 62.5 micrograms/kg/injection, schedule: Q01DX009 (ip), vehicle: Klucel (hydroxypropylcellulose) (HPC)): 105 % of control
- T/C (dose: 125.0 micrograms/kg/injection, schedule: Q01DX009 (ip), vehicle: Klucel (hydroxypropylcellulose) (HPC)): 96 % of control
- T/C (dose: 500.0 micrograms/kg/injection, schedule: Q01DX009 (ip), vehicle: Klucel (hydroxypropylcellulose) (HPC)): 94 % of control
- T/C (dose: 1000.0 micrograms/kg/injection, schedule: Q01DX009 (ip), vehicle: Klucel (hydroxypropylcellulose) (HPC)): 95 % of control

Structure (SMILES): CC(=O)NCCCCCCNC(C)=O
- T/C [2]: 108 % of control
- T/C [3]: 97 % of control
- T/C [5]: 106 % of control
- T/C [4]: 106 % of control
- T/C (dose: 800.0 mg/kg/injection, schedule: Q01DX009 (ip), vehicle: saline): 179 % of control

Structure (SMILES): ClCC[N+]12CC[N+](CCCl)(CC1)C2
- T/C (dose: 12.5 mg/kg/injection, schedule: Q01DX009 (ip), vehicle: water): 98 % of control
- T/C (dose: 25.0 mg/kg/injection, schedule: Q01DX009 (ip), vehicle: water): 114 % of control
- T/C (dose: 50.0 mg/kg/injection, schedule: Q01DX009 (ip), vehicle: water): 104 % of control
- T/C (dose: 100.0 mg/kg/injection, schedule: Q01DX009 (ip), vehicle: water): 108 % of control

Structure (SMILES): O=c1ncccn1[C@@H]1O[C@H](CO)[C@H](O)C1O (stereo partly drawn)
- T/C [2]: 122 % of control
- T/C [3]: 116 % of control and 107 % of control
- T/C [5]: 122 % of control
- T/C [4]: 120 % of control and 122 % of control
- T/C (dose: 400.0 mg/kg/injection, schedule: Q01DX009 (ip), vehicle: saline): 180 % of control

Structure (SMILES): CCN1/C(=C/C=C/C=C\C=C\c2sc3ccc4ccccc4c3[n+]2CC)Sc2ccc3ccccc3c21
- T/C (dose: 1.25 mg/kg/injection, schedule: Q01DX009 (ip), vehicle: saline with Tween-80): 101 % of control
- T/C (dose: 1.25 mg/kg/injection, schedule: Q01DX009 (ip), vehicle: saline): 124 % of control
- T/C (dose: 2.5 mg/kg/injection, schedule: Q01DX009 (ip), vehicle: saline with Tween-80): 94 % of control
- T/C (dose: 2.5 mg/kg/injection, schedule: Q01DX009 (ip), vehicle: saline): 123 % of control

Structure (SMILES): COC12[C@@H]3N[C@@H]3CN1C1=C(C(=O)C(NCCSSCCNC3=C(C)C(=O)C4=C(C3=O)C(COC(N)=O)[C@]3(OC)C5N[C@@H]5CN43)=C(C)C1=O)[C@@H]2COC(N)=O (stereo partly drawn)
- T/C (dose: 0.75 mg/kg/injection, schedule: Q04DX003 (ip), vehicle: suspension in saline): 193 % of control
- T/C (dose: 1.5 mg/kg/injection, schedule: Q04DX003 (ip), vehicle: suspension in saline): 190 % of control
- T/C (dose: 3.0 mg/kg/injection, schedule: Q04DX003 (ip), vehicle: suspension in saline): 218 % of control
- T/C (dose: 6.0 mg/kg/injection, schedule: Q04DX003 (ip), vehicle: suspension in saline): 218 % of control
- T/C (dose: 12.0 mg/kg/injection, schedule: Q04DX003 (ip), vehicle: suspension in saline): 218 % of control

Structure (SMILES): CC(=O)Oc1[nH]c(=O)c2cccc3c2c1CCC3
- T/C (dose: 400.0 mg/kg/injection, schedule: Q01DX009 (ip), vehicle: saline with Tween-80): 120 % of control

Structure (SMILES): CC(C)(C)OC(=O)N(C=O)C(Cc1c[nH]c2ccccc12)C(=O)O (stereo not drawn)
- T/C [6]: 94 % of control
- T/C [7]: 88 % of control
- T/C [8]: 86 % of control

Structure (SMILES): CC(=O)/C=C\c1ccc(Cl)cc1
- T/C [1]: 107 % of control
- T/C [2]: 103 % of control
- T/C [3]: 103 % of control

Structure (SMILES): CCCC(NC(=O)OCc1ccccc1)C(=O)NC(C(=O)O)C(C)C (stereo not drawn) (Cbz-[Nva]-Val-OH; configuration not given here)
- T/C [6]: 102 % of control
- T/C [7]: 109 % of control
- T/C [8]: 99 % of control

Structure (SMILES): COc1ccc(C[C@H](N)C(=O)NC2C(CO)OC(n3cnc4c(N(C)C)ncnc43)C2O)cc1 (stereo partly drawn)
- T/C (dose: 5.0 mg/kg/injection, schedule: Q01DX009 (ip), vehicle: saline): 103 % of control and 105 % of control
- T/C (dose: 10.0 mg/kg/injection, schedule: Q01DX009 (ip), vehicle: saline): 114 % of control and 106 % of control
- T/C (dose: 20.0 mg/kg/injection, schedule: Q01DX009 (ip), vehicle: saline): 112 % of control and 116 % of control
- T/C (dose: 40.0 mg/kg/injection, schedule: Q01DX009 (ip), vehicle: saline): 118 % of control and 122 % of control

Structure (SMILES): CC/C(C)=C1\OC(=O)C(C)C(O)C(Cc2cccnc2)NC(=O)C(NC(=O)c2ncccc2O)C(C)OC1=O (stereo not drawn)
- T/C (dose: 0.75 mg/kg/injection, schedule: Q01DX009 (ip), vehicle: saline with Tween-80): 113 % of control
- T/C (dose: 1.5 mg/kg/injection, schedule: Q01DX009 (ip), vehicle: saline with Tween-80): 107 % of control
- T/C (dose: 3.0 mg/kg/injection, schedule: Q01DX009 (ip), vehicle: saline with Tween-80): 123 % of control
- T/C (dose: 6.0 mg/kg/injection, schedule: Q01DX009 (ip), vehicle: saline with Tween-80): 86 % of control

Structure (SMILES): CO[C@H](C(=O)[C@@H](O)[C@@H](C)O)[C@@H]1Cc2cc3cc(OC4CC(OC5CC(O)C(O)C(C)O5)C(O)C(C)O4)c(C)c(O)c3c(O)c2C(=O)[C@H]1OC1CC(OC2CC(OC3CC(C)(O)C(O)C(C)O3)C(O)C(C)O2)C(O)C(C)O1 (stereo partly drawn)
- T/C (dose: 0.06 mg/kg/injection, schedule: Q01DX009 (ip), vehicle: saline): 111 % of control
- T/C (dose: 0.12 mg/kg/injection, schedule: Q01DX009 (ip), vehicle: saline): 101 % of control
- T/C (dose: 0.25 mg/kg/injection, schedule: Q01DX009 (ip), vehicle: saline): 101 % of control
- T/C (dose: 0.5 mg/kg/injection, schedule: Q01DX009 (ip), vehicle: saline): 117 % of control
- T/C (dose: 1.0 mg/kg/injection, schedule: Q01DX009 (ip), vehicle: saline): 105 % of control
- T/C (dose: 2.0 mg/kg/injection, schedule: Q01DX009 (ip), vehicle: saline): 113 % of control
